Source: ChEMBL document CHEMBL4610051, “Spirobiflavonoid stereoisomers from the endangered conifer Glyptostrobus pensilis and their protein tyrosine phosphatase 1B inhibitory activity” (Bioorg Med Chem Lett, 2020)
pIC50: −log10 of the molar value.

Target: T1, Tyrosine-protein phosphatase non-receptor type 1 (Homo sapiens, UniProt P18031)
T1 sequence (P18031 whole entry): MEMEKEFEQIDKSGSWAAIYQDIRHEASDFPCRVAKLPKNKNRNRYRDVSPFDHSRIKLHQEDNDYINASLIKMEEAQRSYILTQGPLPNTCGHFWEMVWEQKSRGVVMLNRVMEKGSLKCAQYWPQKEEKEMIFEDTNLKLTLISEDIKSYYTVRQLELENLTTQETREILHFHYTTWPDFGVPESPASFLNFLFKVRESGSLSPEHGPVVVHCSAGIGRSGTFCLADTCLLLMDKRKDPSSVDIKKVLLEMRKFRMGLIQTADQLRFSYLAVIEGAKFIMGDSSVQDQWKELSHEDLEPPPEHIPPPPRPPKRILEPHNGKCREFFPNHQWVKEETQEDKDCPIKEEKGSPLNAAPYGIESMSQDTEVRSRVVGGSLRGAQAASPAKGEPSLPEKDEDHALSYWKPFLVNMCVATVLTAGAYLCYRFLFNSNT
Assay: Inhibition of human PTP1B

SMILES	pIC50
O=C1Oc2cc(O)c3c(c2[C@@]12c1c(O)cc(O)cc1O[C@@H]2c1ccc(O)cc1)O[C@H](c1ccc(O)cc1)[C@H](O)C3	5.09
O=C1Oc2cc(O)c3c(c2[C@@]12c1c(O)cc(O)cc1O[C@H]2c1ccc(O)cc1)O[C@H](c1ccc(O)cc1)[C@@H](O)C3	5.34
O=C1Oc2cc(O)c3c(c2[C@]12c1c(O)cc(O)cc1O[C@H]2c1ccc(O)cc1)O[C@H](c1ccc(O)cc1)[C@@H](O)C3	4.95
O=C1Oc2cc(O)c3c(c2[C@]12c1c(O)cc(O)cc1O[C@@H]2c1ccc(O)cc1)O[C@H](c1ccc(O)cc1)[C@@H](O)C3	5.48
O=C1Oc2cc(O)c3c(c2[C@@]12c1c(O)cc(O)cc1O[C@@H]2c1ccc(O)cc1)O[C@H](c1ccc(O)cc1)[C@@H](O)C3	4.77
O=C1Oc2cc(O)c3c(c2[C@]12c1c(O)cc(O)cc1O[C@@H]2c1ccc(O)cc1)O[C@H](c1ccc(O)cc1)[C@H](O)C3 [LARIXINOL]	4.89
